One test has as its system S. Typhimurium ATCC14028. The test can be described thus: Static peg assay for prevention of biofilm formation (Calgary device, crystal violet). The test is classed as cell-based, Salmonella Typhimurium. The note with it: 25° C. A digest of the protocol:
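Calgary 96-peg device, ca. 10^6 cells of ATCC14028 per well in TSB 1/20 for 24 h at 25° C (or 48 h at 16° C, medium and compound renewed at 24 h), or in CFA broth for 24 h at 37° C, static, with two-fold compound dilutions. Crystal violet stain, acetic acid extraction, OD570. IC50 from 2–3 independent experiments.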

Test [1] relates to Pseudomonas aeruginosa PA14. Briefly: Antibacterial activity: growth inhibition, OD600 after 24 h (GIC50). In kind it is cell-based. Conditions: 25° C. On the procedure:
Starting from a 40 mM stock solution of each compound in DMSO, two-fold serial dilutions in 100 μl liquid broth per well were prepared in dublicate in sterile transparant microtiter plates. The broth used was TSB 1/20 for measurements at 25° C. and CFA (in case of Salmonella Typhimurium) and LBNS (in case of Pseudomonas aeruginosa) for measurements at 37° C. Subsequently an overnight culture of the bacteria (S. Typhimurium ATCC14028 or P. aeruginosa PA14) was diluted 1/200 into the corresponding liquid broth and 100 μl was added to each well of the microtiterplate resulting in a total amout of 200 μl medium per well. After an incubation of 24 hours the optical density at 600 nm of each well was determined with a microtiter plate reader (VERSAmax, Molecular Devices).
Evaluation of antibacterial-inhibitory activity of some substituted imidazo[1,2-a]pyrimidinium bromide salts of the invention was carried out by diluting an overnight culture of Salmonella Typhimurium ATCC14028 or Pseudomonas aeruginosa PA141/200 into liquid medium. 200 μl of the diluted overnight culture was added to each well of a microtiterplate together with different concentrations of the test compound (1/2 dilution series of the compound). After an incubation of 24 hours the optical density at 600 nm of each well was determined with a microtiter plate reader. […] The GIC50 values of representative compounds for antibacterial activity are shown in the following Tables 9 and 10 (wherein Ph stands for phenyl, Me for methyl): […]

Where [2] appears, read: Table 11, read-out: IC50 (biofilm formation).
Where [3] appears, read: Table 14, read-out: IC50 biofilm inhibition.
[4] abbreviates: Table 18, read-out: S. Typhimurium IC50 (biofilm formation).

Several values for one entry are separate records, joined by “and”; a condition that tells them apart may be missing. Identical values can stand only once. Like-named read-outs stand apart in the source and are kept apart here. Where only a bound is given, the exact number is not on record here.

`CCCCCCN1c2nccc[n+]2CC1(O)c1ccc([N+](=O)[O-])cc1.[Br-]` (centres unmarked) [Compound 34]: the IC50 (as a rule, the midpoint of a concentration-inhibition curve) came out at 54.7 µM in the test with S. Typhimurium ATCC14028 (24 hours, Table 15, read-out: (1) IC50 (biofilm inhibition)); 46.8 µM in the test with S. Typhimurium ATCC14028 (setting [2]); 46.8 µM with S. Typhimurium ATCC14028 (setting [3]); 54.7 µM with S. Typhimurium ATCC14028 (Table 16, read-out: S. Typhimurium IC50 (biofilm formation)).

As for `OC1(c2ccc(Cl)cc2)C[n+]2cccnc2N1C1CCCCC1.[Br-]` (centres unmarked) [Compound 64], the IC50 in test [1] was 61.3 µM; in the test with S. Typhimurium ATCC14028 (Table 11, listed as R1=cyclohexyl, R3=4-Cl—Ph, R4=H, read-out: IC50 (biofilm formation)), 43.8 µM and 35.6 µM; in the test with S. Typhimurium ATCC14028 (Table 14, listed as R1=Cyclohexyl, R3=4-ClPh, R4=H, read-out: IC50 biofilm inhibition), 43.8 µM and 35.6 µM; in the test with S. Typhimurium ATCC14028 (setting [4]) it was 33 µM.

Regarding `O=[N+]([O-])c1ccc(C2(O)C[n+]3cccnc3N2C2CCCCCCCCCCC2)cc1.[Br-]` (centres unmarked) [Compound 69], the IC50 in test [1] was 8.89 µM; in the test on S. Typhimurium ATCC14028 (setting [2]), less than 6.25 µM; with S. Typhimurium ATCC14028 (setting [3]), less than 6.25 µM; in the test with S. Typhimurium ATCC14028 (setting [4]), less than 6.3 µM.

As for `OC1(c2ccc(I)cc2)C[n+]2cccnc2N1Cc1ccccc1.[Br-]` (centres unmarked) [Compound 73], the IC50 in test [1] is 51.7 µM; in the test with S. Typhimurium ATCC14028 (Table 11, listed as R1=Bn, R3=4-I—Ph, R4=H, read-out: IC50 (biofilm formation)) it was 30.7 µM and 26.9 µM; in the test on S. Typhimurium ATCC14028 (Table 14, listed as R1=Bn, R3=4-IPh, R4=H, read-out: IC50 biofilm inhibition), 26.9 µM; with S. Typhimurium ATCC14028 (Table 14, listed as R1=Bn, R3=4-Iph, R4=H, read-out: IC50 biofilm inhibition) it was 30.7 µM; in the test with S. Typhimurium ATCC14028 (Table 19, read-out: IC50 (biofilm formation)) it was 36.7 µM.

With `OC1(c2ccc(-c3ccccc3)cc2)C[n+]2cccnc2N1C1CCCC1.[Br-]` (centres unmarked) [R1=Cyclopentyl, R3=4-biphenylyl, R4=H, 1-cyclopentyl-2-hydroxy-2-(4-biphenylyl)-2,3-dihydro-1H-imidazo[1,2-a]pyrimidin-4-ium bromide], the IC50 in test [1] (Pseudomonas aeruginosa, PA14) amounted to 27.1 µM; in the test with S. Typhimurium ATCC14028 (Salmonella enterica, Table 11, read-out: IC50 (biofilm formation)), 14.9 µM; with S. Typhimurium ATCC14028 (Salmonella enterica, Table 14, read-out: IC50 biofilm inhibition) it was 14.9 µM.

The record behind these values is patent US20130029981A1, “COMPOUNDS, COMPOSITIONS, AND METHODS FOR CONTROLLING BIOFILMS” (Katholieke Universiteit Leuven, priority 2009, published 2013).
